Reference: publication PMC6331714 (ChemistryOpen, 2019)

Tests used:
[1] = target: XIAP (Homo sapiens, UniProt P98170); assay: fluorescence polarization competition with AVPFAQK; format: binding
[2] = target: X-linked inhibitor of apoptosis protein (XIAP) BIR3 domain; assay: fluorescence polarisation

Sequence of XIAP (P98170 241-356 limits assumed): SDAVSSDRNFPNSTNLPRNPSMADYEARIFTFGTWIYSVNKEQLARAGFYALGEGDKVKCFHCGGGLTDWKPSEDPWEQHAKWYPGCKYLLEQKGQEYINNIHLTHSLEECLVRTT

| IC50 [1] [nM] | IC50 [2] [nM] | Molecule |
| --- | --- | --- |
| 210 | – | C[C@H](N)C(=O)N[C@H]1CNC(=O)C[C@H]2CC[C@@H](C(=O)NC(c3ccccc3)c3ccccc3)N2C1=O [ZJ-1, (5 S ,8 S ,10aR)‐5‐((S)‐2‐aminopropanamido)‐N‐benzhydryl‐2,6‐dioxodecahydropyrrolo[1,2‐a][1,5] diazocine‐8‐carboxamide] |
| – | 1150 | AVPI [AVPI, N-terminal tetrapeptide binding motif of Smac/DIABLO (Ala-Val-Pro-Ile)] |
